Usually melting point stands for the temperature, or range, at which the solid turns liquid.

Turning to `CN(C)S(=O)(=O)NCC1COc2ccccc2O1` (racemic) [Compound #6, N-(2,3-Dihydro-benzo[1,4]dioxin-2-ylmethyl)-N′,N′dimethylsulfamide], the melting point fell in the range of 76 to 78 °C.

As to `NS(=O)(=O)NCC1CCc2ccccc2O1` (stereo not shown) [Compound #10, Chroman-2-ylmethylsulfamide], the melting point lay in the range of 100 to 101 °C.

In turn, `NS(=O)(=O)NCCC1COc2ccccc2O1` (stereo not shown) [Compound #16, 2-(2,3-Dihydro-benzo[1,4]dioxin-2-yl)-ethylsulfamide] returned a melting point of 101 to 103 °C.

`NS(=O)(=O)NC[C@H]1COc2cc(Cl)c(Cl)cc2O1` [Compound #29, (2S)-(−)-N-(6,7Dichloro-2,3-dihydro-benzo[1,4]dioxin-2-ylmethyl)-sulfamide]: the melting point was 119 to 121 °C.

Source of the values: patent US8853263B2, “Co-therapy for the treatment of epilepsy and related disorders” (Janssen Pharmaceutica NV, priority 2006, dated 2014).
